# Measured values taken from ChEMBL document CHEMBL5634150, “Design, synthesis and biological evaluation of novel dihydroquinolin-4(1H)-one derivatives as novel tubulin polymerization inhibitors” (Eur J Med Chem, 2023).
# Legend:
# [1] = Metabolic stability in mouse plasma assessed as compound remaining at 1 uM and measured at 3 hrs by LC-MS/MS analysis; type: ADME, cell-free; details: read-out: Stability
# [2] = tested on: A549; assay: Antiproliferative activity against human A549 cells assessed as inhibition of cell growth at 1 uM measured after 72 hrs by MTT assay relative to control; type: functional
# [3] = tested on: A549; assay: Antiproliferative activity against human A549 cells assessed as inhibition of cell growth at 0.1 uM measured after 72 hrs by MTT assay relative to control; type: functional
# [4] = tested on: A549; assay: Antiproliferative activity against human A549 cells assessed as inhibition of cell growth at 0.01 uM measured after 72 hrs by MTT assay relative to control; type: functional
# [5] = tested on: A549; assay: Antiproliferative activity against human A549 cells assessed as inhibition of cell growth measured after 72 hrs by MTT assay; type: functional, cell-based; details: A549, 72 h
# [6] = tested on: K562; assay: Antiproliferative activity against human K562 cells assessed as inhibition of cell growth measured after 72 hrs by MTT assay; type: functional, cell-based; details: K562, 72 h
# [7] = tested on: HepG2; assay: Antiproliferative activity against human HepG2 cells assessed as inhibition of cell growth measured after 72 hrs by MTT assay; type: functional, cell-based; details: HepG2, 72 h
# [8] = tested on: MDA-MB-231; assay: Antiproliferative activity against human MDA-MB-231 cells assessed as inhibition of cell growth measured after 72 hrs by MTT assay; type: functional, cell-based; details: MDA-MB-231, 72 h
# [9] = Antiproliferative activity against human HFL1 cells assessed as inhibition of cell growth measured after 72 hrs by MTT assay; type: toxicity, cell-based
# [10] = Metabolic stability in mouse liver microsomes assessed as intrinsic clearance at 100 uM measure upto 60 mins in presence of NADPH by LC-MS/MS analysis; type: ADME, Microsome; details: 1 h
Structure (SMILES),"remaining at 3 h, 1 µM [1]",inhibition at 1 µM [2],inhibition at 0.1 µM [3],inhibition at 0.01 µM [4],IC50 [5],IC50 [6],IC50 [7],IC50 [8],IC50 at 72 h [9],CLH [10]
CC(=O)Oc1ccc(C(c2ccc(OC(C)=O)cc2)c2ccccn2)cc1 [BISACODYL],0.003%,,,,,,,,,
COc1cc2c(c(OC)c1OC)C(=O)CCN2c1ccc(O)cc1,,29.9%,15.1%,9.57%,,,,,,
COc1cc2c(c(OC)c1OC)C(=O)CCN2c1ccc2cc[nH]c2c1,,71.1%,38.2%,22.4%,288 nM,902 nM,2310 nM,2890 nM,9750 nM,
C[C@]12CC[C@H]3[C@@H](CCC4=CC(=O)CC[C@@]43C)[C@@H]1CC[C@@H]2O [TESTOSTERONE],,,,,,,,,,436 µL/min/mg
COc1cc(N2CCC(=O)c3cc4c(cc32)OCO4)cc(OC)c1OC,,46.6%,29.2%,19.9%,,,,,,
COc1cc2c(c(OC)c1OC)C(=O)CCN2c1ccc2c(c1)OCCO2,,72.4%,44.9%,35.6%,216 nM,81 nM,163 nM,237 nM,303 nM,
COc1ccc(N2CCCc3c2cc(OC)c(OC)c3OC)cc1O,,81%,45%,35%,276 nM,297 nM,668 nM,1060 nM,2660 nM,
COc1cc2c(c(OC)c1OC)C(=O)CCN2c1ccc(O)c(O)c1,,35%,22.9%,21.9%,,,,,,
COc1ccc(N2CCC(=O)c3cc4c(cc32)OCO4)cc1O,,28%,14.3%,12.7%,,,,,,
COc1cc2c(c(OC)c1OC)C(=O)CCN2Cc1ccccc1,,23.2%,6.72%,8.31%,,,,,,
COc1cc2c(c(OC)c1OC)C(=O)CCN2c1ccc2c(ccn2C)c1,,79.2%,78.6%,54.3%,11 nM,25 nM,72 nM,102 nM,102 nM,
COc1cc2c(c(OC)c1OC)C(=O)CCN2c1c[nH]c2ccccc12,,51.7%,31.4%,16.6%,,,,,,
COc1cc2c(c(OC)c1OC)C(=O)CCN2c1ccc2c(c1)OCO2,,65.3%,44.8%,22.6%,,,,,,
COc1cc2c(c(OC)c1OC)C(=O)CCN2c1ccccc1,,31.1%,12.3%,6.13%,,,,,,
COc1cc2c(c(OC)c1OC)C(=O)CCN2c1ccc2ccn(C)c2c1,,61%,53.4%,13.2%,170 nM,147 nM,648 nM,1140 nM,2760 nM,
COc1cc2c(c(OC)c1OC)C(=O)CCN2c1cccc2[nH]ccc12,,35.9%,31.2%,11.6%,,,,,,
COc1ccc(N2CCC(=O)c3ccccc32)cc1O,,58.5%,54.7%,38.2%,,,,,,
